Biological target: T1, ORF15 (polyprenyl phosphoribofuranose synthase, PPPRS) (Citrobacter youngae, UniProt A0A2Z4BV67)
T1 construct: gene ubiA; full-length two-domain integral membrane protein (N-terminal PRP/HAD, C-terminal UbiA-type PPPRS); plasmid-expressed, membranes used as enzyme
T1 sequence (A0A2Z4BV67 1-483): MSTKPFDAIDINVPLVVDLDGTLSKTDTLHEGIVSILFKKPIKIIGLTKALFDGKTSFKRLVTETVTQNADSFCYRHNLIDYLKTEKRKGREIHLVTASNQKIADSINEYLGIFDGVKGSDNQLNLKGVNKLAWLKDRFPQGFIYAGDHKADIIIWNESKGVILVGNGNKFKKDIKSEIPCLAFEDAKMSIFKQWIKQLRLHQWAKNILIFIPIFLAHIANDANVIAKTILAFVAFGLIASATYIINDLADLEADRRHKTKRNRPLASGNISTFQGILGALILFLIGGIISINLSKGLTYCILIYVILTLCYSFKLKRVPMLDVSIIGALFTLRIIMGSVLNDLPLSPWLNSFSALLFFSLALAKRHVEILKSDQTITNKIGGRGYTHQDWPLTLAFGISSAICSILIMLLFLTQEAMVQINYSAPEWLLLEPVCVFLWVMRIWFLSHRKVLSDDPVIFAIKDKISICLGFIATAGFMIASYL
Test: TLC, MS and NMR of product formed by membranes
Assay type: biochemical
Conditions: […] °C, […] h, expressed membranes

For CC(C)=CCC/C(C)=C/CC/C(C)=C/COP(=O)(O)O [compound 1, farnesyl-phosphate], the “TLC, MS and NMR of product formed by membranes” value ([…] acceptor, […] PRPP, […] MgCl2, […] HEPES pH […]) was “revealing production of a slower migrating species that was dependent on the presence of PRPP”.
In the case of O=P(O)(O)OC[C@H]1O[C@H](OP(=O)(O)OP(=O)(O)O)[C@H](O)[C@@H]1O [phosphoribosylpyrophosphate], the “TLC, MS and NMR of product formed by membranes” value ([…] donor, […] farnesylP acceptor, […] MgCl2, pH […]) is reported as “membranes, PRPP donor, and farnesylP acceptor were analyzed by thin layer chromatography (TLC)”.
